{"source": "paper PMC8770641", "about": "“A transcytotic transport mechanism across the tympanic membrane” (Scientific Reports, 2022)", "key": {"[1]": {"system": "trans-TM transport of phage expressing peptide TMT-3", "experiment": "Inhibitor studies: effect on trans-TM transport of phage expressing peptide TMT-3", "type": "in vivo, Sprague Dawley rats", "settings": "1 h, n = 6 ears; for Effect on trans-TM phage transport: NTHi-infected rats; for Reduction of trans-TM transport: ME contents titered", "procedure": "Figure 5 illustrates the results of inhibitor studies.\nThe MEs of rats were infected with NTHi as above. 48 h later, the external ears of six anesthetized rats were injected with 50 µl of saline containing 10^10 phage expressing TM-3 peptide and up to four inhibitors. Inhibitors were applied at 5–10 times the published IC50 (see Table 1). For any combination of that affected trans-TM transport, Inhibitors were then tested individually to identify the active agent(s). Inhibitors included bafilomycin A (2 µM), brefeldin A (1 uM), carrageenan (200 mg/ml), chlorpromazine (300 µM), Dynasore (500 µM), Endosidin-2 (1 mM), Exo-1 (200 µM), Filipin (50 µg/ml), genistein (100 µM), N-ethylmaleimide (50 µM), nocodazole (300 µM), PitStop-2 (100 µM), Retro-2 (100 µM) and wortmannin (100 µM). […] Six external ears were injected with 10^9 wild-type (WT) phage without a peptide, as negative controls for phage contamination. After one hour, the external ears were extensive rinsed to remove all phage, the MEs were opened and the contents titered to quantify bacteriophage entry. Six replicates were averaged to get the mean and The standard error was calculated by dividing the standard deviation by the sample size's square root (n = 6)."}, "[2]": {"system": "tympanic membrane (TM)", "settings": "purified phage applied to the TM of previously infected rats for one hour; ME contents titered; mean of n = 6; cited from earlier work", "excerpt": "Table 1 Sequences and ME recovery of trans-TM 12-mer peptide phage identified by two screening methods (data from Kurabi et al.[19]). Each purified phage was applied to the TM of previously infected rats for one hour (n = 6), and the ME contents then tittered and the number of phage particles recovered were averaged (mean of n = 6). Phage recovery was grouped into transport categories, which were | column: Mean recovery from ME (PFUs)"}, "[3]": {"settings": "inhibitor 100 µM with TMT-3 phage"}, "[4]": {"settings": "inhibitor 100 µM with 10^10 TMT-3 phage in 50 µl saline in external ear of NTHi-infected rats (48 h)"}, "[5]": {"settings": "inhibitor 300 µM with TMT-3 phage"}}, "data": [{"molecule": "CO/C1=C\\C(C)=C\\[C@@H](C)[C@@H](O)[C@@H](C)C/C(C)=C/C=C/[C@H](OC)[C@@H]([C@@H](C)[C@@H](O)[C@H](C)[C@@]2(O)C[C@@H](O)[C@H](C)[C@@H](C(C)C)O2)OC1=O", "note": "[Bafilomycin]", "values": [{"measurement": "Effect on trans-TM phage transport", "setting": "[1]; inhibitor 2 µM with TMT-3 phage", "result": "no effect"}]}, {"molecule": "O=C(N/N=C/c1ccc(O)c(O)c1)c1cc2ccccc2cc1O", "note": "[Dynasore]", "values": [{"measurement": "Effect on trans-TM phage transport", "setting": "[1]; inhibitor 500 µM with TMT-3 phage", "result": "no effect"}]}, {"molecule": "COc1cc(/C=N/NC(=O)c2cccc(F)c2)cc(I)c1O", "note": "[Endosidin-2]", "values": [{"measurement": "Reduction of trans-TM transport", "setting": "[1]; inhibitor 1 mM with 10^10 TMT-3 phage in 50 µl saline in external ear of NTHi-infected rats (48 h)", "result": "~ 80%"}, {"measurement": "Effect on trans-TM phage transport", "setting": "[1]; inhibitor 1 mM with TMT-3 phage", "result": "significantly reduced transport"}]}, {"molecule": "COC(=O)c1ccccc1NC(=O)c1ccc(F)cc1", "note": "[Exo-1]", "values": [{"measurement": "Reduction of trans-TM transport", "setting": "[1]; inhibitor 200 µM with 10^10 TMT-3 phage in 50 µl saline in external ear of NTHi-infected rats (48 h)", "result": 40, "unit": "%"}, {"measurement": "Effect on trans-TM phage transport", "setting": "[1]; inhibitor 200 µM with TMT-3 phage", "result": "significantly reduced transport"}]}, {"molecule": "CCCCC[C@@H](O)[C@H]1C(=O)O[C@H](C)[C@@H](O)/C=C/C=C/C=C/C=C/C=C(\\C)[C@@H](O)C[C@H](O)C[C@H](O)C[C@H](O)C[C@H](O)C[C@H](O)C[C@@H]1O", "note": "[Filipin]", "values": [{"measurement": "Effect on trans-TM phage transport", "setting": "[1]; inhibitor 50 µg/ml with TMT-3 phage", "result": "no effect"}]}, {"molecule": "CCN1C(=O)C=CC1=O", "note": "[N-ethymaleimide]", "values": [{"measurement": "Effect on trans-TM phage transport", "setting": "[1]; inhibitor 50 µM with TMT-3 phage", "result": "no effect"}]}, {"molecule": "O=C1NC(=NS(=O)(=O)c2cccc3ccccc23)S/C1=C\\c1ccc(Br)cc1", "note": "[Pitstop-2]", "values": [{"measurement": "Effect on trans-TM phage transport", "setting": "[1]; [3]", "result": "Neither Pitstop-2, as illustrated in Fig. 5, nor chlorpromazine had any effect"}]}, {"molecule": "Cc1ccc(C=Nc2ccccc2C(=O)Nc2ccccc2)s1", "note": "[Retro-2]", "values": [{"measurement": "Reduction of trans-TM transport", "setting": "[1]; [4]", "result": "approximately 90%"}, {"measurement": "Effect on trans-TM phage transport", "setting": "[1]; [3]", "result": "significantly reduced transport"}]}, {"molecule": "CN(C)CCCN1c2ccccc2Sc2ccc(Cl)cc21", "note": "[chlorpromazine]", "values": [{"measurement": "Effect on trans-TM phage transport", "setting": "[1]; [5]", "result": "Neither Pitstop-2, as illustrated in Fig. 5, nor chlorpromazine had any effect"}]}, {"molecule": "O=c1c(-c2ccc(O)cc2)coc2cc(O)cc(O)c12", "note": "[genistein]", "values": [{"measurement": "Effect on trans-TM phage transport", "setting": "[1]; [3]", "result": "no effect"}]}, {"molecule": "COC(=O)Nc1nc2ccc(C(=O)c3cccs3)cc2[nH]1", "note": "[nocodazole]", "values": [{"measurement": "Effect on trans-TM phage transport", "setting": "[1]; [5]", "result": "no effect"}]}, {"molecule": "COC[C@H]1OC(=O)c2coc3c2[C@@]1(C)C1=C(C3=O)[C@@H]2CCC(=O)[C@@]2(C)C[C@H]1OC(C)=O", "note": "[wortmannin]", "values": [{"measurement": "Reduction of trans-TM transport", "setting": "[1]; [4]", "result": "approximately 90%"}, {"measurement": "Effect on trans-TM phage transport", "setting": "[1]; [3]", "result": "significantly reduced transport"}]}, {"molecule": "ALWPPNLHAWVP [BPT-2, trans-TM 12-mer peptide expressed on M13 bacteriophage, fused through the C-terminus to the pIII protein]", "values": [{"measurement": "Mean recovery from ME (PFUs)", "setting": "[2]", "result": 210, "unit": "PFUs"}]}, {"molecule": "DVGAGRWFSDNG [TMT-4, trans-TM 12-mer peptide expressed on M13 bacteriophage, fused through the C-terminus to the pIII protein]", "values": [{"measurement": "Mean recovery from ME (PFUs)", "setting": "[2]", "result": 5430, "unit": "PFUs"}]}, {"molecule": "SADSTKTTHLTL [TMT-3, trans-TM 12-mer peptide expressed on M13 bacteriophage, fused through the C-terminus to the pIII protein]", "values": [{"measurement": "Mean recovery from ME (PFUs)", "setting": "[2]", "result": "12,030 PFUs"}]}, {"molecule": "SDDSRPIAQFAI [TMT-5, trans-TM 12-mer peptide expressed on M13 bacteriophage, fused through the C-terminus to the pIII protein]", "values": [{"measurement": "Mean recovery from ME (PFUs)", "setting": "[2]", "result": 3017, "unit": "PFUs"}]}, {"molecule": "SPPGKFLESLRS [TMT-1, trans-TM 12-mer peptide expressed on M13 bacteriophage, fused through the C-terminus to the pIII protein]", "values": [{"measurement": "Mean recovery from ME (PFUs)", "setting": "[2]", "result": 610, "unit": "PFUs"}]}, {"molecule": "TFNPPPPQMPST [BPT-4, trans-TM 12-mer peptide expressed on M13 bacteriophage, fused through the C-terminus to the pIII protein]", "values": [{"measurement": "Mean recovery from ME (PFUs)", "setting": "[2]", "result": 9040, "unit": "PFUs"}]}, {"molecule": "THPSTKVPGTPA [BPT-3, trans-TM 12-mer peptide expressed on M13 bacteriophage, fused through the C-terminus to the pIII protein]", "values": [{"measurement": "Mean recovery from ME (PFUs)", "setting": "[2]", "result": "13,050 PFUs"}]}, {"molecule": "TLSPKMPGGGYW [TMT-2, trans-TM 12-mer peptide expressed on M13 bacteriophage, fused through the C-terminus to the pIII protein]", "values": [{"measurement": "Mean recovery from ME (PFUs)", "setting": "[2]", "result": 3210, "unit": "PFUs"}]}, {"molecule": "TPMVERNYNAAD [BPT-1, trans-TM 12-mer peptide expressed on M13 bacteriophage, fused through the C-terminus to the pIII protein]", "values": [{"measurement": "Mean recovery from ME (PFUs)", "setting": "[2]", "result": 95, "unit": "PFUs"}]}, {"molecule": "carrageenan", "values": [{"measurement": "Effect on trans-TM phage transport", "setting": "[1]; inhibitor 200 mg/ml with TMT-3 phage", "result": "no effect"}]}]}
